Reference: paper PMC7179259, “Safety, Tolerability, Pharmacokinetics, and Antimalarial Activity of the Novel Plasmodium Phosphatidylinositol 4-Kinase Inhibitor MMV390048 in Healthy Volunteers” (Antimicrobial Agents and Chemotherapy, 2020)
Marks after values point to notes of the source that are not given here.

Legend:
healthy volunteers = assay: First-in-human single-ascending-dose study: safety and tolerability; format: in vivo; details: for lowest observed neutrophil count: 24 h after 40 mg
Protocol: The first-in-human study was conducted at the University of Cape Town Clinical Research Centre (Cape Town, South Africa) between 30 April 2014 and 2 February 2015. This was a phase 1, adaptive, single-center, double-blind, randomized, placebo-controlled, ascending-dose study. The study was planned in two parts, with a single ascending dose and then a multiple ascending dose. However, the multiple-ascending-dose part was not executed due to the high variability in pharmacokinetic profiles observed during the single-ascending-dose part (see Results).
(i) First-in-human study. The study was conducted in five fasted cohorts (5, 20, 40, 80, and 120 mg) and one fed 40-mg cohort. The initial dose of 5 mg was chosen in agreement with guidelines on dose selection for first-in-human clinical studies ([15], [16]) and was based on the no-observed-adverse-event level for the most sensitive species observed in preclinical toxicology studies. Doses administered to subsequent cohorts were determined a priori after consideration of interim human pharmacokinetic and safety data.
MMV390048 and placebo were each supplied as a powder for suspension packaged in white opaque high-density polyethylene bottles, with a volume capacity of 100 ml when reconstituted with deionized water (Almac Pharma Services, United Kingdom). The powder contained the following excipients: Avicel CL611, disodium edetate, sodium citrate dihydrate, methyl paraben, sucralose, povidone, and orange flavor. The reconstituted formulation consisted of the active ingredient MMV390048 in an aqueous suspension of 5 mg ml^−1.
All subjects in the fasted cohorts were dosed on day 1 after a fasting period of ≥8 h. Water was prohibited from 2 h predose and then allowed ad libitum from 2 h postdose, and standardized meals were provided from 4 h postdose. In the first two cohorts (5 and 20 mg), a sentinel subcohort (n = 2) was dosed on day 1. The safety review team reviewed safety and pharmacokinetic data of these subjects up to day 3 before dosing the rest of these two cohorts and up to day 19 for all cohorts before dose escalation. […] Selected subjects from the fasted cohorts then received 40 mg in a fed state to evaluate the effect of food on the tolerability and pharmacokinetic profile of MMV390048. […] The predose breakfast was in line with FDA guidelines ([13]) and was composed of approximately 800 to 1,000 calories (cal), with 150, 250, and 500 to 600 cal from protein, carbohydrate, and fat, respectively.
(§1) Safety endpoints were the incidence, severity, and relationship to the investigational product (and inoculum for the IBSM study) of observed and self-reported adverse events (AEs), and changes from baseline in physical examination, vital signs, standard electrocardiograms (ECGs), continuous ECGs (first-in-human study only), and laboratory evaluation (hematology, coagulation parameters, hemolysis panel, clinical chemistry, and urinalysis) findings. […] AE severity was evaluated according to the Common Terminology Criteria for Adverse Events version 4.03 ([18]) and the World Health Organization recommendations for grading acute and subacute toxic effects ([19]).

healthy subjects = assay: Formulation optimization study: safety; format: in vivo, human; details: both tablet formulations
Protocol: The third study was a formulation optimization study to test two MMV390048 tablet formulations (tartaric acid and Syloid). The formulation optimization study was conducted at Richmond Pharmacology Ltd. (London, United Kingdom) from 17 September to 28 October 2015. This was a phase 1, open-label, single-dose, parallel-group, two-cohort design study.
(iii) Formulation optimization study. Subjects received one of two tablet formulations (formulation A, tartaric acid tablets; formulation B, Syloid tablets; manufactured by Quotient Clinical, United Kingdom) on day 1, after an ≥8-h fasting period, at a dose of 40 mg with 240 ml of water. Subjects were followed up until day 29.
as §1

[1] = design: method as in PMID 28446690; details: predicted for humans; cited from earlier work
rats = tested on: rats; design: method as in not given; details: preclinical toxicology studies in rats; ref not given; cited from earlier work
[2] = first-in-human study, 5 mg (n = 6)
[3] = first-in-human study, 20 mg (n = 6)
[4] = first-in-human study, 40 mg (n = 6)
[5] = first-in-human study, 40 mg (n = 6), AE was neutropenia
[6] = first-in-human study, 40 mg FED (n = 6)
[7] = first-in-human study, 40 mg FED (n = 6), AE was neutropenia
[8] = first-in-human study, 80 mg (n = 6)
[9] = first-in-human study, 120 mg (n = 6)
[10] = first-in-human study, 120 mg (n = 6), SAE was generalized myoclonus

## CS(=O)(=O)c1ccc(-c2cnc(N)c(-c3ccc(C(F)(F)F)nc3)c2)cc1 [MMV390048]
Healthy volunteers; approximately 24 h after 120 mg, subject with undisclosed history of epilepsy
  serious AE (SAE) reported: generalized myoclonus
Healthy volunteers; [2]
  No. (%) of subjects with adverse events: All AEs: 4 (67)
  No. (%) of subjects with adverse events: All AEs, Treatment related: 0
  No. (%) of subjects with adverse events: Grade 2 AEs: 0
  No. (%) of subjects with adverse events: Grade 2 AEs, Treatment related: 0
  No. (%) of subjects with adverse events: Grade 3 AEs: 0
  No. (%) of subjects with adverse events: SAEs: 0
  No. of adverse events: All AEs: 11
  No. of adverse events: All AEs, Treatment related: 0
  No. of adverse events: Grade 2 AEs: 0
  No. of adverse events: Grade 2 AEs, Treatment related: 0
  No. of adverse events: Grade 3 AEs: 0
  No. of adverse events: SAEs: 0
Healthy volunteers; [3]
  No. (%) of subjects with adverse events: All AEs: 5 (83)
  No. (%) of subjects with adverse events: All AEs, Treatment related: 3 (50)
  No. (%) of subjects with adverse events: Grade 2 AEs: 4 (67)
  No. (%) of subjects with adverse events: Grade 2 AEs, Treatment related: 1 (17)
  No. (%) of subjects with adverse events: Grade 3 AEs: 0
  No. (%) of subjects with adverse events: SAEs: 0
  No. of adverse events: All AEs: 12
  No. of adverse events: All AEs, Treatment related: 3
  No. of adverse events: Grade 2 AEs: 5
  No. of adverse events: Grade 2 AEs, Treatment related: 1
  No. of adverse events: Grade 3 AEs: 0
  No. of adverse events: SAEs: 0
Healthy volunteers; [4]
  No. (%) of subjects with adverse events: All AEs: 5 (83)
  No. (%) of subjects with adverse events: All AEs, Treatment related: 3 (50)
  No. (%) of subjects with adverse events: Grade 2 AEs: 3 (50)
  No. (%) of subjects with adverse events: Grade 2 AEs, Treatment related: 1 (17)
  No. (%) of subjects with adverse events: SAEs: 0
  No. of adverse events: All AEs: 19
  No. of adverse events: All AEs, Treatment related: 3
  No. of adverse events: Grade 2 AEs: 4
  No. of adverse events: Grade 2 AEs, Treatment related: 1
  No. of adverse events: SAEs: 0
Healthy volunteers; [5]
  No. (%) of subjects with adverse events: Grade 3 AEs: 1 (17)^c
  No. of adverse events: Grade 3 AEs: 1^c
Healthy volunteers; [6]
  No. (%) of subjects with adverse events: All AEs: 6 (100)
  No. (%) of subjects with adverse events: All AEs, Treatment related: 2 (33)
  No. (%) of subjects with adverse events: Grade 2 AEs: 2 (33)
  No. (%) of subjects with adverse events: Grade 2 AEs, Treatment related: 1 (17)
  No. (%) of subjects with adverse events: SAEs: 0
  No. of adverse events: All AEs: 22
  No. of adverse events: All AEs, Treatment related: 2
  No. of adverse events: Grade 2 AEs: 2
  No. of adverse events: Grade 2 AEs, Treatment related: 1
  No. of adverse events: SAEs: 0
Healthy volunteers; [7]
  No. (%) of subjects with adverse events: Grade 3 AEs: 1 (17)^c
  No. of adverse events: Grade 3 AEs: 1^c
Healthy volunteers; [8]
  No. (%) of subjects with adverse events: All AEs: 6 (100)
  No. (%) of subjects with adverse events: All AEs, Treatment related: 2 (33)
  No. (%) of subjects with adverse events: Grade 2 AEs: 5 (83)
  No. (%) of subjects with adverse events: Grade 2 AEs, Treatment related: 0
  No. (%) of subjects with adverse events: Grade 3 AEs: 0
  No. (%) of subjects with adverse events: SAEs: 0
  No. of adverse events: All AEs: 20
  No. of adverse events: All AEs, Treatment related: 3
  No. of adverse events: Grade 2 AEs: 6
  No. of adverse events: Grade 2 AEs, Treatment related: 0
  No. of adverse events: Grade 3 AEs: 0
  No. of adverse events: SAEs: 0
Healthy volunteers; [9]
  No. (%) of subjects with adverse events: All AEs: 6 (100)
  No. (%) of subjects with adverse events: All AEs, Treatment related: 1 (17)
  No. (%) of subjects with adverse events: Grade 2 AEs: 2 (33)
  No. (%) of subjects with adverse events: Grade 2 AEs, Treatment related: 1 (17)
  No. (%) of subjects with adverse events: Grade 3 AEs: 0
  No. of adverse events: All AEs: 11
  No. of adverse events: All AEs, Treatment related: 1
  No. of adverse events: Grade 2 AEs: 3
  No. of adverse events: Grade 2 AEs, Treatment related: 1
  No. of adverse events: Grade 3 AEs: 0
Healthy volunteers; [10]
  No. (%) of subjects with adverse events: SAEs: 1 (17)^e
  No. of adverse events: SAEs: 1^e
Healthy volunteers; first-in-human study, across dose groups
  trends in inhibin B, FSH, LH, or testosterone levels: No trends
Healthy volunteers; first-in-human study, all MMV390048 cohorts
  adverse events considered potentially related to MMV390048: Twelve
Healthy volunteers; first-in-human study, any subject
  QT prolongation (QTcF, >450 ms): No QT prolongation
Healthy volunteers; first-in-human study, mild related AE, one subject
  decrease in blood pressure (to): 87/52
Healthy volunteers; first-in-human study, moderate severity, in 2 subjects
  diarrhea considered related to MMV390048, cases: 2
Healthy volunteers; one subject, 20 mg
  duration of moderate papular urticaria episode: 20 days
  onset of moderate papular urticaria after dosing: 14 days
Healthy volunteers; one subject, 40 mg fasted
  time for neutrophil count to return to >1.5 × 10^9 liter^−1: 4 days
Healthy volunteers; one subject, 40 mg fed
  time for neutrophil count to return to >1.5 × 10^9 liter^−1: 13 days
Healthy volunteers; one subject, 24 h after 20 mg, PR 200.3 ms on admission
  PR prolongation on ECG, maximum: 285 ms
Healthy volunteers; one subject, fasted state (predose 1.65)
  lowest observed neutrophil count: 7.7e+08 L⁻¹
Healthy volunteers; one subject, fed state (predose 1.90)
  lowest observed neutrophil count: 9.7e+08 L⁻¹
Healthy volunteers; single oral dose up to 120 mg, healthy volunteers
  tolerability: generally well tolerated
Healthy subjects; 18 subjects
  total AEs reported: 11
Healthy subjects; of 18 subjects
  subjects with AEs: 7
[1]
  elimination half-life in humans predicted from preclinical studies: 90 h
rats
  testicular toxicity: testicular toxicity was observed
